Results published in patent US20240082221A1, “COMPOSITIONS AND METHODS FOR THE IDENTIFICATION OF COMPOUNDS THAT PROTECT AGAINST LIPOFUSCIN CYTOTOXICITY” (priority 2021, published 2024).
“Also recorded” adds a separate entry of the source.

Assays:
ARPE-19 cells [1] = test system: ARPE-19 cells
Procedure: Cell Viability Assay. […] 1× AlamarBlue solution prepared in OptiMEM was used to replace the media supernatant and the plate's fluorescence was determined at 555 nm excitation/585 nm emission with a SpectraMax M (Molecular Devices, CA, USA), after 1 h. […] The exact timing of appearance of far-red (DRAQ7=plasma membrane leakage) and blue (NUC405=caspase 3 activation) fluorescence signals was critical to differentiate apoptosis and necrosis from secondary events, such as membrane damage and generalized proteolytic activation during the late phase of apoptosis and necrosis, respectively.
Real time monitoring of necrotic and apoptotic cell-death. Cell-death assay to study Lipofuscin's dark toxicity was performed. 90% confluent ARPE-19 or hfRPE were incubated overnight in serum free media supplemented with indicated LB concentration. Viability was assessed at 24 hrs by AlamarBlue®, or microscopy with NUC405/DRAQ7. Real time monitoring of necrotic (red) and apoptotic (blue) cell-death was performed by automated fluorescence microscopy. The exact timing of appearance of far-red (DRAQ7=plasma membrane leakage) and blue (NUC405=caspase 3 activation) fluorescence signals was critical to differentiate apoptosis and necrosis from secondary events, such as membrane damage and generalized proteolytic activation during the late phase of apoptosis and necrosis, respectively.
Chemical inhibitors. Chemical inhibitors used in this study are described in FIG. 12.

human MLKL = assay: Western blot of Ser358 phospho-MLKL, phosphorylation and polymerization of MLKL; assay type: cell-based; conditions: absence of light
Procedure: (§1) Immunoblotting. Total cell lysates were extracted using RIPA lysis buffer (50 mM TrisHCl, Ph 8.0, 150 mM NaCl, 1% NP40, 0.5% Sodium Deoxycholate, 0.1% SDS, protease-phosphatase inhibitor) after the incubation of the specific sample group in a 48 well plate. Sonication or syringing (20 times) was done followed by centrifugation at 12,000×g for 10 mins and the supernatant was collected and stored in −80° C. Proten concentration from homogenates were assessed by Pierce Rapid Gold BCA protein assay kit (ThermoFisher Scientific, cat.no. A53225). Then 30 μg of protein was analyzed by standard SDS-PAGE gel. Samples were mixed 4:1 (v:v) with Nupage loading buffer with or without 8% 0-mercaptoethanol and heated for 10 min at 72° C. SDS-PAGE was done using 4-12% Nupage gel and buffer (Life, NP0335BOX). Next, SDS-PAGE gel was transferred to nitrocellulose membrane (Whatman, PROTAN BA83) overnight at 20V. The following day, 5% milk in TBS was used for 2 h blocking the membrane and then primary antibody was added in TBST (TBS, 0.1% Tween-20) for overnight at 4° C. Next day membranes were washed and incubated for 2 hours at room temperature with HRP conjugated secondary antibody (cat #G21234, Invitrogen) at 1:10,000 dilution. After 3 more washed membranes were probed with enhanced chemiluminescence (ECL) reagent and detected using an X-ray films for chemiluminescence image (GE healthcare, RPN2106). Scanning/imaging and quantitation of the image was done using silverfast 8 application software and Fiji Image J. Antibodies for Western blotting were list in FIG. 10.
For its phosphorylation, MLKL and its kinase need to be recruited into multiprotein complexes, known as necrosomes (FIG. 4O). Necrosomes are not well conserved among species and vary also with the nature of the stimuli that triggers their formation. […] Considering that phosphorylation of human MLKL at Ser358 (pMLKL), is a hallmark triggering event and marker of necroptosis, the Ser358-phosphorylation and polymerization status of MLKL in cells with LF was determined. […] A prerequisite for the assembly of these RIP kinases into necrosomes was their phosphorylation.

IRE1α [2] = assay: qPCR of spliced XBP1 (XBP1s) as readout of IRE1α activity in ARPE-19; assay type: cell-based, Human
Source text: RNA isolation and quantitative PCR. Total RNA was extracted from cultured cells or mouse eye RPE layer using the RNeasy Mini kit (QIAGEN). The total RNA was digested with deoxyribonuclease I to prevent amplification of genomic DNA. The total RNA then was reversed transcribed using High-Capacity cDNA Reverse Transcription Kit (ThermoFisher Scientific, cat.no. 4368814) and analyzed gene expression using SYBR Green Master Mix (ThermoFisher Scientific, cat.no. 4472908) in an Applied Biosystems StepOne real time PCR machine. GAPDH was used as a reference gene. […] After genes were amplified by real time PCR, some of the PCR products were separated by 2.5% agarose gel.

cathepsin D = assay type: cell-based
Source text: (§2) Next, A2E buildups were imaged using a combination of DIC and fluorescence: A2E appeared as granules with well-defined edges, both within cells or after drying over a coverslip (FIGS. 14D and 14E). Next, the ability of the suspected A2E crystals to damage lysosomal membranes was investigated. A recently developed galectin-3 puncta assay for early detection of lysosomal membrane permeabilization (LMP) was used. Briefly, cytosolic galectin-3 rapidly binds to the glycocalyx in the luminal face of lysosomal membranes as they become leaky, which is easily detectable with anti-galectin high-affinity antibodies. L-Leucyl-L-Leucine methyl ester (LLO) a lysosomotropic peptide that causes LMP was used as positive control of puncta formation (FIG. 14E). […] LMP was confirmed by showing the […] of cathepsin D, as surrogate of lysosomal enzymes. […] Also, very remarkable was the observation that the same unique pattern of protection with arimoclomol and Nec-7 but not Nec-1 was observable for LLO (FIG. 14K), consistent with the idea that necroptosis by A2E is being caused by LMP.

lysosomal membranes = assay type: cell-based
Source text: as §2

[3] = Detection of lipid bisretinoids aggregation by filter passage; assay type: physicochemical
Source text: Detection of lipid bisretinoids aggregation.

[4] = test system: UPR (PERK and ATF6 branches); assay: Western blot of ER-stress markers (p-eIF2a, ATF4, BiP, ATF6) without illumination; assay type: cell-based, Human
Procedure: as §1
The causal link between LF accumulation and ER-stress without light assistance was analyzed (FIG. 6A). […] The activation of the IRE1α branch was visualized by qPCR.

pMLKL = assay: Fluorescence microscopy of pMLKL plasma membrane translocation in ARPE-19 monolayers; assay type: cell-based, Human; conditions: ARPE-19 with A2E or ATRD
Source text: Chronic accumulation of polymeric pMLKL could account for progressive damage in pigmented retinas as they amass LF.

ARPE-19 cells [5] = assay: Blue-light phototoxicity of A2E-loaded cells, AlamarBlue; assay type: cell-based, Human; conditions: A2E 5 μM O/N, blue light 10 min, viability after 24 hrs
Procedure: FIG. 18A: ARPE19 cells were pretreated for 1 hr with the […] of: eIF2a (Salubrinal (SAL), SAL003, or Guanabenz); eIF4 (Briciclib or eFT508); mTOR (Rapamycin, Torin-1); or the unspecific protein translation inhibitor (Cyclohexamide CHX) and then incubated with lethal doses of A2E (25 μM) for an additional 24 hrs in the presence of these drugs. Viability was assessed with AlamarBlue®. […] Viability was assessed with AlamarBlue®. […] ARPE-19 cells were incubated O/N with a non-toxic amount of A2E (5 μM) to allow its incorporation into lysosomes and after changing the media for PBS and irradiating for 10 min with blue light cells were maintained for an additional 24 hrs in Optimem before evaluating viability, using AlamarBlue®. FIG. 18D: Fluorescence microscopy of cells incubated with lethal amounts of A2E (25 μM) in Optimem for 24 hrs. Green fluorescence corresponds to A2E deposits. Nuclei are stained with the DNA dye, Hoechst, in viable cells (blue) and with Hoechst and DRAQ7 (a DNA dye that only enter cells with disrupted membranes) in dead cells (purple).
Blue light treatment. ARPE19 cells were grown at 70% confluence and were treated with or without 20 μM A2E in culture medium for 24 h. Then, HBSS replaced the cell culture medium before blue light treatment. ARPE19 cells with or without A2E intake, were illuminated by 460+20 nm wavelength light for 20 min.

Oxidative damage by H2O2 = assay type: cell-based
IRE1α [6] = assay: Western blot of light-independent phosphorylation of IRE1α induced by LF; assay type: cell-based
Procedure: as §1, with “The following day, 5% milk in TBS was used for 2 h blocking the membrane and then primary antibody was added in TBST (TBS, 0.1% Tween-20) for overnight at 4° C. Next day membranes were washed and incubated for 2 hours at room temperature with HRP conjugated secondary antibody (cat #G21234, Invitrogen) at 1:10,000 dilution.” left out

CC(C=CC1=C(C)CCCC1(C)C)=CC=CC(C)=Cc1cc(C=CC=C(C)C=CC2=C(C)CCCC2(C)C)cc[n+]1CCO [A2E, N-retinylidene-N-retinylethanolamine]
cell death in ARPE19 cells exposed to the substance (ARPE-19 cells [1]; light-independent): Dose dependent cell death
induction of phosphorylation and polymerization of MLKL (human MLKL): dose-dependent phosphorylation and polymerization of MLKL
induction of XBP1s (IRE1α [2]; in the dark, qPCR): dose and time-dependent inductions of XBP1s
cathepsin-D activity (cathepsin D): caused reduction in cathepsin-D activity
lysosomal membrane permeabilization (galectin-3 puncta) (lysosomal membranes): clearly caused puncta staining and therefore LMP
passage through 3 μm filter in aqueous milieu ([3]; 3 μm cut-off, same material): did cross membranes with 3 μm cut-off
passage through 0.45 μm filter in aqueous milieu ([3]; 450 nm filter pores): could not move across 450 nm filter pores
cleavage of ATF6 ([4]; 6 hrs treatment, 20 μM A2E): significant cleavage
Ser51 phosphorylation of eIF2a ([4]; without light): strongest Ser51 phosphorylation of eIF2a

O=C(/C=C/c1ccccc1)NC(NC(=S)Nc1cccc2cccnc12)C(Cl)(Cl)Cl (stereo not shown) [Salubrinal]
protection against lethal doses of A2E, viability (ARPE-19 cells [1]; ARPE19 pretreated 1 hr, then A2E 25 μM for 24 hrs in presence of drug, AlamarBlue): protected against lipofuscin
requirement of PERK / ATF4 for protection against lipofuscin (ARPE-19 cells [1]; with PERK inhibitor GSK2606414 or ATF4-shRNA, A2E 25 μM 24 hrs): needs PERK but not ATF4 to exert protection against lipofuscin
effect on LF-induced pMLKL plasma membrane localization (pMLKL): abrogated
effect on LF-induced XBP1 splicing (XBP1s, IRE1α activity) (IRE1α [2]; ARPE-19, qPCR, listed as SAL): inhibits IRE1α signaling; also recorded: abrogated
protection against phototoxic decomposition of lipid bisretinoids (ARPE-19 cells [5]): does not protect against the phototoxic decomposition of lipid bisretinoids

CC(=O)N[C@@H](CS)C(=O)O [NAC, N-acetyl cysteine]
prevention of oxidative damage by H2O2 (Oxidative damage by H2O2): effectively prevented oxidative damage by H2O2
light-independent phosphorylation of IRE1α induced by LF in presence of antioxidant (IRE1α [6]): proceeded unaffected
